{
  "source": "PubChem BioAssay AID1963858",
  "about": "(Molecular Pharmacology Branch, DTP, NCI, 2024)",
  "tested_on": "HOP-62 multicell spheroids with HUVEC/MSC, viability",
  "experiment": "Anticancer human tumor HOP-62 cell line growth inhibition [KRAS2];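 note: viability read after a week of compound exposure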;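 for viability, T/C: 100% = DMSO vehicle-treated spheroids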",
  "conditions": "for viability, T/C: stronger effect = lower value; for pIC50: curve of first compound",
  "source_text": "Multicellular complex tumor spheroid response to RAS pathway inhibitors in combination with a targeted agents in patient-derived cell lines with oncogenic KRAS variants from multiple cancer types\nA high-throughput screen of multi-cell type tumor spheroids was designed to identify active combinations of targeted small molecules and KRAS pathway inhibitors. Complex spheroids include a stromal component modeled by human endothelial cells (HUVEC) and fibroblasts modeled by human mesenchymal stem cells (MSCs). The concentration ranges selected for each drug and investigational agent were based upon clinically achievable concentrations if the clinical Cmax of the agent was known.\nCompounds. The drugs and investigational agents: BI-3406 (NSC825286), BAY-293 (NSC824723), batoprotafib (TNO155; NSC825523), sotorasib (AMG 510; NSC818433), MRTX1257 (NSC819558), elimusertib (BAY 1895344; NSC800525), molibresib (GSK525762; NSC774829), temuterkib (LY3214996; NSC803410), venetoclax (NSC766270), alisertib (NSC759677), olaparib (NSC753686), talazoparib (NSC767125), erdafitinib (NSC781556), ipatasertib (NSC767898), cabozantinib (NSC761068), nintedanib (NSC756659), abemaciclib (NSC768073), docetaxel (NSC628503), trametinib (NSC758246), and sapanisertib (NSC764658) were obtained from the National Cancer Institute (NCI) Developmental Therapeutics Program Chemical Repository. The FDA-approved anticancer drug set is available from the Developmental Therapeutics Program. […] The stock solutions were prepared in dimethyl sulfoxide (DMSO, Sigma-Aldrich, St. Louis, MO, cat. D2650) at 800-fold the tested concentration and stored at -70 degrees C prior to their use. All drugs and investigational agents were tested over a range starting from a high concentration at or near the clinical Cmax and decreasing in half-log increments. If the clinical Cmax for an agent had not been determined, the highest concentration tested was 10 microM.\nCell Culture. All cells were maintained in an incubator at 37 degrees C and 5% CO2 with 95% humidity. The PDC lines were cultured according to standard operating procedures established by the NCI PDMR (https://pdmr.cancer.gov/sops/default.htm). Briefly, all PDCs were thawed and cultured in Matrigel-coated flasks prepared with a working solution of 1X Ham's F-12 nutrient mix, without supplementation (Invitrogen, Waltham, MA, cat. 11765054), 100 U/mL penicillin-streptomycin (Invitrogen, cat. 15140122), and 2.5% Matrigel (Corning Inc., Corning, NY, cat. 354248) for the first three passages. All PDCs were cultured in complete DMEM/F-12 media containing advanced DMEM/F-12 (Invitrogen, cat. 12634028), 4.9% defined fetal bovine serum, heat inactivated (HyClone Laboratories Inc., Logan, UT, cat. SH30070.03HI), 389 ng/mL hydrocortisone (Sigma-Aldrich, cat. H4001), 9.7 ng/mL human EGF recombinant protein (Invitrogen, cat. PHG0313), 23.4 microg/mL adenine (Sigma-Aldrich, cat. A2786), 97.3 U/mL penicillin-streptomycin (Invitrogen, cat. 15140122), 1.9 mM L-glutamine (Invitrogen, cat. 25030081), and 9.7 microM Y-27632 dihydrochloride (Tocris Bioscience, Bristol, United Kingdom, cat. 1254). The PDCs were cultured in complete DMEM/F12 media without 9.7 microM Y-27632 dihydrochloride for at least two passages prior to the screen. The established cell line HOP-62 was cultured in RPMI 1640 medium, HEPES (Invitrogen, cat. 22400105) with 10% defined fetal bovine serum (HyClone Laboratories Inc., cat. SH30070.03) and 2 mM L-glutamine (Invitrogen, cat. 25030081). The pooled donor HUVEC were cultured in endothelial cell growth medium 2 (PromoCell, Heidelberg, Germany, cat. C-22011) and the hMSC were cultured in mesenchymal stem cell growth medium 2 (PromoCell, cat. C-28009). For all experiments, HUVEC and hMSC were used at passages </=5, while the malignant cell lines were used at passages </=15. […]",
  "note": "pIC50: −log10 of the molar value.",
  "data": [
    {"smiles": "C=CC(=O)N1CCN(c2nc(OCC3CCCN3C)nc3c2CCN(c2cccc4cccc(C)c24)C3)CC1CC#N", "note": "(configuration not stated)", "values": [
      {"measurement": "viability, T/C", "setting": "compound 1 µM", "result": "35.5% [middle of 17 runs]"},
      {"measurement": "IC50", "setting": "compound alone, run of 07/26/2021", "result": "622 nM [middle of 6 runs]"}
    ]},
    {"smiles": "CC(=O)OC12COC1CC(O)C1(C)C(=O)C(O)C3=C(C)C(OC(=O)C(O)C(NC(=O)OC(C)(C)C)c4ccccc4)CC(O)(C(OC(=O)c4ccccc4)C21)C3(C)C", "note": "(configuration not stated) + CNCc1ccccc1-c1csc(C(C)Nc2nc(C)nc3cc(OC)c(OC)cc23)c1", "values": [
      {"measurement": "pIC50", "setting": "second compound 0.1 µM", "result": "> 8.00"},
      {"measurement": "pIC50", "setting": "second compound 0.316 µM", "result": "> 8.00"},
      {"measurement": "pIC50", "setting": "second compound 1 µM", "result": "> 8.00"},
      {"measurement": "pIC50", "setting": "second compound 3.16 µM", "result": "> 8.00"},
      {"measurement": "pIC50", "setting": "second compound 10 µM", "result": "> 8.00"},
      {"measurement": "viability, T/C", "setting": "second compound 0.1 µM, first compound 0.01 µM", "result": 36.4, "unit": "%"},
      {"measurement": "viability, T/C", "setting": "second compound 0.1 µM, first compound 0.0316 µM", "result": 35.2, "unit": "%"},
      {"measurement": "viability, T/C", "setting": "second compound 0.1 µM, first compound 0.1 µM", "result": 38.1, "unit": "%"},
      {"measurement": "viability, T/C", "setting": "second compound 0.1 µM, first compound 0.316 µM", "result": 35, "unit": "%"},
      {"measurement": "viability, T/C", "setting": "second compound 0.1 µM, first compound 1 µM", "result": 34.9, "unit": "%"},
      {"measurement": "viability, T/C", "setting": "second compound 0.1 µM, first compound 3.16 µM", "result": 45.7, "unit": "%"},
      {"measurement": "viability, T/C", "setting": "second compound 0.316 µM, first compound 0.01 µM", "result": 34.3, "unit": "%"},
      {"measurement": "viability, T/C", "setting": "second compound 0.316 µM, first compound 0.0316 µM", "result": 33, "unit": "%"},
      {"measurement": "viability, T/C", "setting": "second compound 0.316 µM, first compound 0.1 µM", "result": 38.1, "unit": "%"},
      {"measurement": "viability, T/C", "setting": "second compound 0.316 µM, first compound 0.316 µM", "result": 31.7, "unit": "%"},
      {"measurement": "viability, T/C", "setting": "second compound 0.316 µM, first compound 1 µM", "result": 29.2, "unit": "%"},
      {"measurement": "viability, T/C", "setting": "second compound 0.316 µM, first compound 3.16 µM", "result": 37, "unit": "%"},
      {"measurement": "viability, T/C", "setting": "second compound 1 µM, first compound 0.01 µM", "result": 34, "unit": "%"},
      {"measurement": "viability, T/C", "setting": "second compound 1 µM, first compound 0.0316 µM", "result": 28.4, "unit": "%"},
      {"measurement": "viability, T/C", "setting": "second compound 1 µM, first compound 0.1 µM", "result": 28, "unit": "%"},
      {"measurement": "viability, T/C", "setting": "second compound 1 µM, first compound 0.316 µM", "result": 33.6, "unit": "%"},
      {"measurement": "viability, T/C", "setting": "second compound 1 µM, first compound 1 µM", "result": 39.8, "unit": "%"},
      {"measurement": "viability, T/C", "setting": "second compound 1 µM, first compound 3.16 µM", "result": 42.4, "unit": "%"},
      {"measurement": "viability, T/C", "setting": "second compound 3.16 µM, first compound 0.01 µM", "result": 26.4, "unit": "%"},
      {"measurement": "viability, T/C", "setting": "second compound 3.16 µM, first compound 0.0316 µM", "result": 0.11, "unit": "%"},
      {"measurement": "viability, T/C", "setting": "second compound 3.16 µM, first compound 0.1 µM", "result": 0.07, "unit": "%"},
      {"measurement": "viability, T/C", "setting": "second compound 3.16 µM, first compound 0.316 µM", "result": 0.09, "unit": "%"},
      {"measurement": "viability, T/C", "setting": "second compound 3.16 µM, first compound 1 µM", "result": 0.11, "unit": "%"},
      {"measurement": "viability, T/C", "setting": "second compound 3.16 µM, first compound 3.16 µM", "result": 34.9, "unit": "%"},
      {"measurement": "viability, T/C", "setting": "second compound 10 µM, first compound 0.01 µM", "result": 3.3, "unit": "%"},
      {"measurement": "viability, T/C", "setting": "second compound 10 µM, first compound 0.0316 µM", "result": 1.3, "unit": "%"},
      {"measurement": "viability, T/C", "setting": "second compound 10 µM, first compound 0.1 µM", "result": 0.1, "unit": "%"},
      {"measurement": "viability, T/C", "setting": "second compound 10 µM, first compound 0.316 µM", "result": 0.14, "unit": "%"},
      {"measurement": "viability, T/C", "setting": "second compound 10 µM, first compound 1 µM", "result": 30.4, "unit": "%"},
      {"measurement": "viability, T/C", "setting": "second compound 10 µM, first compound 3.16 µM", "result": 2.73, "unit": "%"}
    ]}
  ]
}
